Test results taken from PMC6211316, “Synthesis and biological evaluation of 3-arylcoumarin derivatives as potential anti-diabetic agents” (Journal of Enzyme Inhibition and Medicinal Chemistry, 2018).

Columns and labels:
[1] = tested on: STZ-induced diabetic mice; assay: Daily treatment for 16 days in STZ-induced diabetic mice; format: in vivo
Experimental: Thereafter, the target compounds 11, 17, 35, and glibenclamide were administered once (9 a.m.) on a daily basis, for a period of 16 days, to STZ-induced diabetic mice which were divided into five groups (A-E). A six group of normal mice (Group F) was used as a control. Groups E (diabetic control) and F received vehicle (0.05% Tween-80 in saline solution) per os for 16 days. Group A received glibenclamide (10 mg/kg of bw daily). Groups B–D received different treatments: B, compound 11 (30 mg/kg of bw daily); C, compound 17 (30 mg/kg of bw daily); D, compound 35 (30 mg/kg of bw daily). All tested materials were suspended in the same vehicle and administered per os daily for 16 days. The animals were housed under standard laboratory conditions and maintained with free access to water and food during all the experiment. Blood glucose concentration on animals of diabetic (Groups A–E) and control group (Group F) was estimated at days 1, 4, 7, 10, 13, and 16. The bw of the animals were measured concomitantly to the blood glucose analyses. All experiments were carried out using six animals per group.

STZ-diabetic mice = assay: Acute hypoglycemic assay in STZ-diabetic mice; format: in vivo; conditions: STZ-diabetics mice
Experimental: Type II diabetes mellitus was induced in mice by a single intraperitoneal injection of freshly prepared STZ (Sigma Aldrich) dissolved in 0.1M citrate buffer, pH 4.5, in a volume of 110 mg/kg of bw. After 7 days of STZ administration, blood glucose levels of each mouse were determined. Mice with blood glucose levels higher than 11 mM were considered diabetic and were included in the study.
STZ-induced diabetic mice and normal mice were placed in single cages with wire-net floors and deprived of food for 12 h before experimentation but allowed free access to tap water throughout. The compounds (at the doses of 10, 30, and 100 mg/kg of bw) were suspended in 0.05% Tween-80 in saline solution. Glibenclamide (10 mg/kg of bw) was suspended in the same vehicle. The target compounds were freshly prepared immediately before experimentation and administered by the intragastrical route at the doses of 10 ml/kg of bw. Control mice received only the vehicle (0.05% Tween-80 in saline solution) by the same route. Blood glucose levels were measured at 0, 1.5, 3, 5, 7, and 9 h after drugs administration.

[2] = hydroxyl radical scavenging; conditions: mean ± SD (n = 3), read-out: OH IC50 Value
In short: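 Fenton system of H2O2 (0.03%), FeSO4 (2 mmol/L) and salicylic acid (10 mmol/L) with compound solutions (0.4–2.0 mg/mL), incubated 30 min at 37 °C. Absorbance read at 510 nm. % OH scavenging = [A0−(A1−A2)]/A0×100, with A2 a sample blank using ethanol in place of salicylic acid.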

α-Glucosidase = target: T1, α-Glucosidase (Saccharomyces cerevisiae, UniProt P53341); assay: biochemical; format: biochemical
T1 construct: purchased Sigma Aldrich G0660-750UN
In short: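 Absorbance at 405 nm of released p-nitrophenol gave % inhibition, corrected for blank and sample-blank wells, and IC50 values, all in triplicate. Reactions combined yeast enzyme, PNPG and test compound in pH 6.8 phosphate buffer (100 mM) at 37 °C for 20 min following a 10-min preincubation, ended with Na2CO3.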

T1 sequence (P53341 whole entry): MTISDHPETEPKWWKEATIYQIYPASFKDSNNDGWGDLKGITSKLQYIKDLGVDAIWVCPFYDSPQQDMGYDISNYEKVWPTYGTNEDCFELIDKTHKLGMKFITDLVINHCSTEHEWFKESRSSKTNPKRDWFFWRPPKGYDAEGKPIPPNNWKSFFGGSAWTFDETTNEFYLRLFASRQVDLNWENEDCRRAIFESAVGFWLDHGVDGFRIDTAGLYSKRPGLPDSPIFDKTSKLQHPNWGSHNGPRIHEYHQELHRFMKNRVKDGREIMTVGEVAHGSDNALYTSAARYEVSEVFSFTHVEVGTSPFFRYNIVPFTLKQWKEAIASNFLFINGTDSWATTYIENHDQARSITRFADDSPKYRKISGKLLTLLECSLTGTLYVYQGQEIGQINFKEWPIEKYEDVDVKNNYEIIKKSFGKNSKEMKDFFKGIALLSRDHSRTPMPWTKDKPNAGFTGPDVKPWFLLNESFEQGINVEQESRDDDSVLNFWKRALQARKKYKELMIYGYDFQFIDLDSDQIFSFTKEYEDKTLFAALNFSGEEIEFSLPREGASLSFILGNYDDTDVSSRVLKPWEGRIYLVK

In the case of `Cc1ccccc1-c1cc2ccc(O)cc2oc1=O` [Compound 11, 7-Hydroxy-3-(2-methylphenyl)-coumarin], the “bw loss in hyperglycemic mice” value ([1]; 30 mg/kg of bw daily per os, 16 days) is reported as “prevented bw loss”, the “long-term anti-hyperglycemic effect (blood glucose levels)” value ([1]; 30 mg/kg of bw oral, once a day, for 16 days) is reported as “less efficient in decreasing blood glucose levels” and the Blood glucose concentration (STZ-diabetic mice; 10 mg/kg of bw per os, 0h) is reported as 24.9 ± 4.1 mM. For the same compound, the “% Variation of glycemia” value (STZ-diabetic mice; 10 mg/kg of bw per os, 1.5h) was “(−17.27) %”, the Blood glucose concentration (STZ-diabetic mice; 10 mg/kg of bw per os, 1.5h) was 20.6 ± 5.9 mM and the “% Variation of glycemia” value (STZ-diabetic mice; 10 mg/kg of bw per os, 3h) was “(−37.75) %”. The Blood glucose concentration (STZ-diabetic mice; 10 mg/kg of bw per os, 3h) was 15.5 ± 8.5 mM, the “% Variation of glycemia” value (STZ-diabetic mice; 10 mg/kg of bw per os, 5h) was “(−48.59) %” and the Blood glucose concentration (STZ-diabetic mice; 10 mg/kg of bw per os, 5h) was 12.8 ± 10.4 mM. The “% Variation of glycemia” value (STZ-diabetic mice; 10 mg/kg of bw per os, 7h) was “(−54.22) %”, the Blood glucose concentration (STZ-diabetic mice; 10 mg/kg of bw per os, 7h) was 11.4 ± 8.2 mM and the “% Variation of glycemia” value (STZ-diabetic mice; 10 mg/kg of bw per os, 9h) was “(−52.21) %”. For the same compound, the Blood glucose concentration (STZ-diabetic mice; 10 mg/kg of bw per os, 9h) was 11.9 ± 8.5 mM, the Blood glucose concentration (STZ-diabetic mice; 30 mg/kg of bw per os, 0h) was 25.3 ± 6.3 mM and the “% Variation of glycemia” value (STZ-diabetic mice; 30 mg/kg of bw per os, 1.5h) was “(−20.95) %”. The Blood glucose concentration (STZ-diabetic mice; 30 mg/kg of bw per os, 1.5h) was 20.0 ± 6.3 mM, the “% Variation of glycemia” value (STZ-diabetic mice; 30 mg/kg of bw per os, 3h) was “(−34.78) %” and the Blood glucose concentration (STZ-diabetic mice; 30 mg/kg of bw per os, 3h) was 16.5 ± 6.4 mM. The “% Variation of glycemia” value (STZ-diabetic mice; 30 mg/kg of bw per os, 5h) was “(−55.41) %”, the Blood glucose concentration (STZ-diabetic mice; 30 mg/kg of bw per os, 5h) was 11.3 ± 4.0 mM and the “% Variation of glycemia” value (STZ-diabetic mice; 30 mg/kg of bw per os, 7h) was “(−62.40) %”. The Blood glucose concentration (STZ-diabetic mice; 30 mg/kg of bw per os, 7h) was 9.5 ± 3.9 mM, the “% Variation of glycemia” value (STZ-diabetic mice; 30 mg/kg of bw per os, 9h) was “(−68.14) %” and the Blood glucose concentration (STZ-diabetic mice; 30 mg/kg of bw per os, 9h) was 8.1 ± 4.2 mM. The Blood glucose concentration (STZ-diabetic mice; 100 mg/kg of bw per os, 0h) was 23.5 ± 5.4 mM, the “% Variation of glycemia” value (STZ-diabetic mice; 100 mg/kg of bw per os, 1.5h) was “(−21.88) %” and the Blood glucose concentration (STZ-diabetic mice; 100 mg/kg of bw per os, 1.5h) was 18.3 ± 3.9 mM. The “% Variation of glycemia” value (STZ-diabetic mice; 100 mg/kg of bw per os, 3h) was “(−34.89) %”, the Blood glucose concentration (STZ-diabetic mice; 100 mg/kg of bw per os, 3h) was 15.3 ± 3.9 mM and the “% Variation of glycemia” value (STZ-diabetic mice; 100 mg/kg of bw per os, 5h) was “(−52.76) %”. The Blood glucose concentration (STZ-diabetic mice; 100 mg/kg of bw per os, 5h) was 11.1 ± 4.4 mM, the “% Variation of glycemia” value (STZ-diabetic mice; 100 mg/kg of bw per os, 7h) was “(−62.21) %” and the Blood glucose concentration (STZ-diabetic mice; 100 mg/kg of bw per os, 7h) was 8.9 ± 2.8 mM. For the same compound, the “% Variation of glycemia” value (STZ-diabetic mice; 100 mg/kg of bw per os, 9h) was “(−65.27) %”, the Blood glucose concentration (STZ-diabetic mice; 100 mg/kg of bw per os, 9h) was 8.2 ± 2.6 mM and the IC50 [2] was > 1000 µM. The “α-glucosidase inhibitory activity (in words)” value (α-Glucosidase; in vitro) was “moderate to excellent inhibitory activity” and the IC50 (α-Glucosidase; mean ± SD (n = 3), read-out: α-Glucosidase inhibitory activity IC50 Value) was 16.4 ± 1.23 µM.
